According to US9943599B2, “Therapeutic applications of calcium electroporation to effectively induce tumor necrosis” (Herlev Hospital, priority 2011, dated 2018):

Assays:
[1] = tested on: N32 (rat brain glioma) tumors; experiment: Calcium electroporation of brain tumor, MRI and H&E; format: in vivo, Sprague Dawley rats
Protocol: N32, a rat brain glioma derived tumor cell line, and 7-11 weeks old Sprague Dawley male rats (Taconic, Hudson N.Y.) were used for the in vivo experiments. The cells were tested by rapid MAP27 panel (Taconic, Hudson N.Y.) before use without signs of infection. Inoculation of 3,000 N32 cells in 5 μl at the stereotaxic coordinates; X=2, Y=1, Z=−4 was performed and verification of tumor by MRI prior to treatment was performed two weeks after inoculation. HYPNORM™-DORMICUM™ (fentanyl/fluanisone/midazolam; VetaPharma, Leeds, U K and Roche, Basel, Switzerland) was used for anesthesia complemented with RIMADYL® (Carprofen) (Pfizer ApS, Ballerup, Denmark) for pain relief after surgery. Tumors were treated two weeks after inoculation with 1) injection of 14 μl calcium-chloride solution (168 mM) and electroporation (32 pulses of 100V for 100 μs and a frequency of 1 Hz) using an 8-electrode device developed for treatment of brain tumors, a square wave electroporator (CLINIPORATOR®, IGEA, Modena, Italy), and a switch box (Sonion), or 2) injection of 14 μl calcium-chloride solution (168 mM) and placement of electrodes but no pulses applied. MRI was performed at day 1, 3, 6, and 8 after treatment. […] The extend of necrosis, the presence of macrophages and the influence on neurons and glia cells were evaluated by H&E, PAS, NF, and GFAP staining, respectively.

[2] = tested on: HT29 (human colon cancer) tumors; experiment: Fraction of necrosis after calcium electroporation, HT29 tumors; format: in vivo, NMRI-Foxn1^nu mice
Protocol: (§1) LPB, a murine sarcoma cell line, B16, a murine malignant melanoma cell line, MDA-MB231, human a breast cancer cell line, HT29, a human colon cancer cell line, and SW780, a human bladder cancer cell line were used for the in vivo experiment. The cells were tested by rapid MAP27 panel (Taconic, Hudson N.Y.) before use without signs of infection. 2×10^5 cells (B16), 8×10^5 cells (LPB), 2.5×10^6 cells (MDA-MB231), and 5×10^6 cells (HT29 and SW780) in 100 μl PBS were injected subcutaneously in the flank of NMRI-Foxn1^nu mice (Harlan, Indianapolis, Ind.) that were 9-11 weeks old. Mice were randomised at a tumor volume above 85 mm^3 and tumors were treated with injection of isotonic calcium-chloride solution (168 mM CaCI2) and electroporation (8 pulses of 1.0 kv/cm for 100 μs and a frequency of 1 Hz) using a 6 mm plate electrode and a square wave electroporator (CLINIPORATOR®, IGEA, Modena, Italy). Tumor volume was calculated as ab^2n/6, where a is the largest diameter and b is the largest diameter perpendicular to a. The injected volume was half of the tumor volume. […] The fraction of necrosis within the tumor was estimated from HE-sections by stereological point counting using a light microscope, evaluated by a pathologist, blinded with respect to treatment status.
(§2) The difference in fraction of necrosis at different time after treatment was assessed using student's t-test.

[3] = tested on: skin dermis and subcutis above MDA-MB231 tumor; experiment: Normal tissue reaction, skin above the tumor; format: in vivo, NMRI-Foxn1nu mice; conditions: some of the mice treated with the high concentration and volume of calcium
Protocol: MDA-MB231, a human breast cancer cell line was used for the in vivo experiments. The cells were tested by rapid MAP27 panel (Taconic, Hudson N.Y.) before use without signs of infection. Cells were maintained in vitro as described in Example 1. 2.5×10^6 cells/100 μl PBS were injected subcutaneously in the flank of NMRI-Foxn1nu mice (Harlan, Indianapolis, Ind.). Tumor pieces were transplanted twice from donor mice to the flank of nude mice that were 13-19 weeks old. HYPNORM™-DORMICUM™ (fentanyl/fluanisone/midazolam; VetaPharma, Leeds, U K and Roche, Basel, Switzerland) was used for anesthesia complemented with RIMADYL® (Carprofen) (Pfizer ApS, Ballerup, Denmark) as well as lidocaine (Region Hovedstadens Apotek, Herlev, Denmark) in the incision. […] Tumor volume was calculated as ab2n/6, where “a” is the largest diameter and “b” is the largest diameter perpendicular to “a”. […] Estimation of normal tissue damages was evaluated semiquantitatively on HE-sections by light[ ]microscopy (LEICA® DM 2000 light microscope, Leica Microsystems, Wetzlar, Germany).
The presence of inflammation in the skin dermis and subcutis was scored from 1-3 (1=minimal, 2=moderate and 3=severe). Edema in the dermis, extravasations of erythrocytes and vasculitis was noted if present, but not scored.

[4] = tested on: SW780 (human bladder cancer) tumors; experiment: Fraction of necrosis after calcium electroporation, SW780 tumors; format: in vivo, NMRI-Foxn1^nu mice
Protocol: as §1, §2

[5] = 168 mM CaCl2, half tumor volume, electroporation, first days after treatment

## [Ca+2].[Cl-].[Cl-] [calcium chloride]
[1]; 14 μl 168 mM calcium alone, no pulses, 6 days after the treatment
  tumor size (MRI, H&E): no effect on tumor size
[1]; 14 μl 168 mM calcium chloride with electroporation (32 pulses 100V), 8 days after the treatment
  tumor (MRI, H&E): eliminated
[2]; [5]
  fraction of necrosis in tumors, course: progressive necrosis
[2]; 6 days after the treatment
  tumor re-growth: re-growth
[3]
  ulceration above the tumor: ulceration above the tumor was seen
[4]; [5]
  fraction of necrosis in tumors, course: progressive necrosis
[4]; 6 days after the treatment
  tumor re-growth: re-growth
